Laboratory results reported in PubChem BioAssay (NCI).
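Protocol summary: plate cells (96-well), add compound at 5 concentrations, incubate 48 h, interpolate endpoints linearly. TGI: concentration producing complete growth inhibition.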

Key:
Test in all cases: NCI-60 cell line screen, 48 h
[1] = system: SNB-19 CNS
[2] = system: HOP-62 NSCLC
[3] = system: NCI-H226 lung
[4] = system: SW-620 colon
[5] = system: HL-60(TB) leukemia
[6] = system: UO-31 renal
[7] = system: CCRF-CEM leukemia
[8] = system: SR leukemia
[9] = system: SK-MEL-2 melanoma
[10] = system: OVCAR-5 ovarian
[11] = system: COLO 205 colon
[12] = system: 786-0 renal
[13] = system: SK-OV-3 ovarian
[14] = system: MDA-MB-435
[15] = system: PC-3 prostate
[16] = system: OVCAR-3 ovarian
[17] = system: SN12C renal
[18] = system: OVCAR-8 ovarian
[19] = system: NCI-H522 lung

Structure (SMILES)	TGI [1] [µM]	TGI [2] [µM]	TGI [3] [µM]	TGI [4] [µM]	TGI [5] [µM]	TGI [6] [µM]	TGI [7] [µM]	TGI [8] [µM]	TGI [9] [µM]	TGI [10] [µM]	TGI [11] [µM]	TGI [12] [µM]	TGI [13] [µM]	TGI [14] [µM]	TGI [15] [µM]	TGI [16] [µM]	TGI [17] [µM]	TGI [18] [µM]	TGI [19] [µM]
O=C(NN1C(=O)C(Cl)C1c1ccc(Cl)cc1)c1c(Cl)c(Cl)c(Cl)c(Cl)c1-c1nc2ccccc2[nH]1 (stereo not drawn)	> 100	> 100	65.7	> 100	59.6	> 100	> 100	> 100	47.1	> 100	36.2	47.4	> 100	80.5	> 100	> 100	83.2	43.7	39.7
COC(=O)[C@@H]1C[C@H]2OC(=O)CC[C@]2(C)O[C@H]1[C@H]1O[C@@](C)(O)CCC[C@H]1C	> 50	> 50	> 50	> 50	30.6	> 50	39.3	> 50	> 50	> 50	> 50	> 50	> 50	> 50	> 50	> 50	> 50	> 50	> 50
